In patent US20240352020A1, “PYRAZOLE-CONTAINING CBP/CATENIN ANTAGONISTS AND USES THEREOF” (3+2 PHARMA, LLC, priority 2021, published 2024):

Columns and labels:
[1] = test system: CBP/β-Catenin; assay: SuperTOPFLASH cell-based luciferase assay (Wnt-driven Luciferase Activity in Stably Transfected Cell Line, Hek293, STF1.1)
Protocol: SuperTOPFLASH Cell-based Luciferase Assay. Hek-293, STF1.1 cells are maintained in DMEM, 10% FBS, Pen-Strep supplemented with 200 μg/mL G418. On the day prior to assay, cells are split into a white, opaque 96-well plate at 10,000 cells per well in 50 μL of complete medium without G418 (for screening of Wnt-signaling inhibitors, G418 can be left out during screening process). After allowing the cells to stabilize and attach overnight, 40 μL of complete medium (without G418) containing 2.5× final concentration of compound or DMSO control is added to the cells and allowed to incubate for 1 hour at 37° C., 5% CO2 prior to adding 10 μL of a 100 mM LiCl solution prepared in complete medium (without G418). After 24 hours, 100 μL of BrightGlo (Promega, Cat. #: G7573) is added to each well and the plate is shaken for 5 minutes prior to reading on the Perkin-Elmer EnVision Plate Reader. For example, on the day prior to assay: cells are split into a white opaque 96-well plate at 10,000 cells per well in 50 μL of complete growth medium; the plate is incubated overnight at 37° C., 5% CO2 and the cells allowed to attach; the next day inhibitors to be tested are prepared in complete growth medium at 2.5× the desired final concentration (all conditions are done in duplicates), and 40 μL of the medium containing the 2.5× concentration of compound is added to each well (include 2 wells for stimulation control, 2 wells for DMSO control, and wells for the positive control ICG-001 (e.g., 2, 5, and 10 micromolar)); once all inhibitors and controls are added, incubate the plate for 1 hour at 37° C., 5% CO2 (while plate is incubating, prepare fresh 100 mM LiCl in complete growth medium); after 1 hour, the plate is removed from the incubator and 10 μL of the medium containing 100 mM LiCl are added to each well (except for the two wells of the unstimulated control, to which […] of just complete medium is added); the plate is incubated for 24 hours at 37° C., 5% CO2; after 24 hours, 100 microliters of BrightGlo (Promega, Cat. #: G7573) is added to each well, the plate is shaken for 5 minutes to ensure complete lysis, and the plate is then read on a Perkin-Elmer EnVision 96-well plate reader.

[2] = intravenous, patients with HCV cirrhosis, cited from earlier work
[3] = test system: T memory stem cells (SCM) and central memory T-cells (CM); conditions: ART-suppressed SIVmac251-infected RMs; cited from earlier work
[4] = FIG. 1, compounds 0.078 μM to 10 μM, ICG-001 positive control at 0.62-20 μM
[5] = FIG. 2, compounds 0.625 μM to 5 μM, ICG-001 positive control at 2.5, 5 and 10 μM
[6] = 10 and 40 mg/m^2/day for 12 weeks

O=C1[C@H](Cc2ccc(O)cc2)N2C(=O)CN(Cc3cnn(-c4ccccc4)c3)N(C(=O)NCc3ccccc3)[C@H]2CN1Cc1cccc2ncccc12 [Compound 1, (6S,9aS)—N-benzyl-6-(4-hydroxybenzyl)-4,7-dioxo-2-((1-phenyl-1H-pyrazol-4-yl)methyl)-8-(quinolin-5-ylmethyl)octahydro-1H-pyrazino[2,1-c][1,2,4]triazine-1-carboxamide]
CBP/β-Catenin inhibition activity: potency compared with ICG-001 [1, 4]: greater potency than that of ICG-001 | CBP/β-Catenin inhibition activity: potency compared between compounds 1 and 2 ([1]; FIG. 1, concentrations between 0.078 μM and 10 μM): greater potency than that of compound 2

O=C1[C@H](Cc2ccc(O)cc2)N2C(=O)CN(Cc3cnn(-c4ccccc4)c3Br)N(C(=O)NCc3ccccc3)[C@H]2CN1Cc1cccc2ncccc12 [Compound 2, (6S,9aS)—N-benzyl-2-((5-bromo-1-phenyl-1H-pyrazol-4-yl)methyl)-6-(4-hydroxybenzyl)-4,7-dioxo-8-(quinolin-5-ylmethyl)octahydro-1H-pyrazino[2,1-c][1,2,4]triazine-1-carboxamide]
CBP/β-Catenin inhibition activity: potency compared with ICG-001 [1, 4]: greater potency than that of ICG-001

O=C1[C@H](Cc2ccc(O)cc2)N2C(=O)CN(Cc3cnn(-c4ccccc4)c3)N(C(=O)NCc3ccccc3)[C@H]2CN1Cc1cccc2cccnc12 [Compound 4, (6S,9aS)—N-benzyl-6-(4-hydroxybenzyl)-4,7-dioxo-2-((1-phenyl-1H-pyrazol-4-yl)methyl)-8-(quinolin-8-ylmethyl)octahydro-1H-pyrazino[2,1-c][1,2,4]triazine-1-carboxamide]
CBP/β-Catenin inhibition activity: potency compared with ICG-001 [1, 5]: greater potency than that of ICG-001 | CBP/β-Catenin inhibition activity: potency compared between compounds 3 and 4 ([1]; FIG. 2, concentrations between 0.625 μM and 5 μM): greater potency than that of compound 3

O=C1[C@H](Cc2ccc(O)cc2)N2C(=O)CN(Cc3ccn(-c4ccccc4)n3)N(C(=O)NCc3ccccc3)[C@H]2CN1Cc1cccc2cccnc12 [Compound 3, (6S,9aS)—N-benzyl-6-(4-hydroxybenzyl)-4,7-dioxo-2-((1-phenyl-1H-pyrazol-3-yl)methyl)-8-(quinolin-8-ylmethyl)octahydro-1H-pyrazino[2,1-c][1,2,4]triazine-1-carboxamide]
CBP/β-Catenin inhibition activity: potency compared with ICG-001 [1, 5]: greater potency than that of ICG-001

C[C@H]1[C@H]2N(C(=O)CN(C)N2C(=O)NCc2ccccc2)[C@@H](Cc2ccc(OP(=O)(O)O)cc2)C(=O)N1Cc1cccc2cccnc12 [PRI-724]
Safety ([2]; 10 and 40 mg/m^2/day for 12 weeks (1 week on and 1 week off)): appeared to be safe | Liver histology and Child Pugh scores [2, 6]: improvement in liver histology and Child Pugh scores in several patients | Plasma exposure of the drug [2, 6]: dose-dependent plasma exposure | Proliferation of T memory stem cells (SCM) and central memory (CM) T-cells [3]: decrease proliferation
